For one data set, the system named is T98G glioblastoma cells. Nature of the data set: MTT cell viability assay, T98G. In kind it is cell-based. The note with it: Homo sapiens, 72 h, mean ± SEM, read-out: IC50 (metabolic activity). As for the experimental part: (§1) Cells harvested from sub-confluent monolayers were seeded at 15,000 cells per mL in a 96-well microtiter plate (Cambridge Technology, Labège, France) and cultured for 24 h under standard conditions. Standard medium was then replaced by fresh medium containing no drugs or compounds at different concentrations. The surviving cells were quantified after 72 h by the MTT assay, according to the manufacturer’s instructions. Briefly, 20 µL of 3-(4,5-diMethylThiazol-2-yl)-2,5diphenyl Tetrazolium bromide (MTT) solution at 5 mg.mL^−1 was added to cells for 3 h at 37 °C. The supernatant was discarded and replaced by 100 µL of dimethyl sulfoxide to dissolve formazan crystals. The absorbance was then read at 600 nm by spectrophotometry. For all concentrations of a given compound, cell viability was expressed as the percentage of the ratio between the mean absorbance of treated cells and the mean absorbance of untreated cells. Three independent experiments were performed, and the data were expressed as percentage of survival (using the untreated cells as 100%) and subjected to statistical analysis (n = 3). The IC50 was calculated using the Chou and Talalay method.
In general terms: Tetrazolium dyes change colour on reduction, which living cells bring about.

Data set [1] deals with U87 shCTRL cells. Nature of the data set: Microtubule network analysis (alpha-tubulin immunofluorescence), U87 shCTRL. In kind it is cell-based, human. As for the experimental part: Cells were then fixed in 4% formaldehyde (in PBS pH 7.4) for 20 min at RT, permeabilized with PBS-Triton X-100 0.5% for 10 min at RT. Immunostaining was carried out overnight at 4 °C with a primary anti-citrate synthase antibody (dilution 1:400 in PBS-BSA 3%; SC390693; SantaCruz Biotechnologies, Heidelberg, Germany). The following day, the cells were washed then incubated with anti-mouse secondary antibody (dilution 1:800 in PBS-BSA 3%; A-11029; Invitrogen) and TRITC-phalloidin (dilution 1:2500 in PBS-BSA 3%; P1951; Sigma-Aldrich, Saint-Quentin-Fallavier, France) for 1 h at RT in the dark. For the microtubule network, the same protocol for mitochondria labeling was carried out by replacing with primary anti-α-tubulin antibody (dilution 1:400 in PBS-BSA 1% from a 1 mg/mL solution; monoclonal antibody, clone DM1A, Sigma-Aldrich, Saint-Quentin-Fallavier, France). Next, cells were washed in PBS and cover glasses were mounted with a drop of ProLong® anti-fade solution (Invitrogen). Mitochondria and cytoskeletons were imaged using a confocal laser scanning microscope (CLSM) Leica SP5 with a Leica inverted microscope, equipped with a Plan-Apochromat 63×oil immersion objective (NA = 1.4). Each image was recorded with the CLSM’s spectral mode selecting specific domains of the emission spectrum. The Alexafluor488 and FITC fluorophores were excited at 488 nm with an argon laser, and fluorescence emission was collected between 496 nm and 535 nm. The TRITC fluorophore was excited at 543 nm with a helium–neon laser, and fluorescence was collected between 560 and 620 nm. The public-domain Fiji v1.54f software was used for image analysis.
The analyses of mitochondria and microtubule networks were performed using, respectively, the ‘Mitochondria analyzer’ plugin for Fiji v1.54f software and the method described in our earlier work. Briefly, a series of images were transferred to the software and corrected for background fluorescence intensity contribution. Next, the surface of 50 single cells was measured by considering the cell shape as the boundary of labelling of actin or α-tubulin cytoskeletons (respectively for measurement on mitochondria or microtubules). Then, the mitochondria elongation and mean branch junction per mitochondria parameters, and the surface of the microtubule network, were measured by performing systematically the Otsu method to reduce all gray-level images to binary images. Note that the Otsu plugin in ImageJ is an algorithm which searches for the threshold minimizing the intra-class variance of pixel intensities, defined as a weighted sum of variances of the two classes; the local set is a circular region of interest, and the central pixel is tested against the Otsu threshold found for that region. Moreover, the ratios of microtubules on cell surfaces were calculated as percentages.

A further data set has as its system U138 glioblastoma cells. The data set is described as follows: MTT cell viability assay, U138. To be noted: Homo sapiens, U138, 72 h, mean ± SEM, read-out: IC50 (metabolic activity). In kind it is cell-based. The method, then:
as §1

For data set [2], the system named is U87 shCTRL cells. Nature of the data set: MTT cell viability assay, U87 shCTRL (expressing Tau). In kind it is cell-based, human. The note with it: for IC50: Homo sapiens, U87 shCTRL, 72 h, MTT, mean ± SEM, read-out: IC50 (metabolic activity). As for the experimental part: All cell lines were purchased from ATCC, Gaithersburg, MD, USA. Cells from human glioblastoma (clones U87 wt, HTB-14; U118, HTB-15; U251, HTB-12; U138, HTB-16), neuroblastoma (clone SK-N-SH, HTB-11), and colorectal adenocarcinoma (clone Caco-2, HTB-37) were routinely grown at 37 °C in a humidified atmosphere containing 5% CO2. Cells were maintained by regular passages in complete media supplemented with 10% FBS, 2mM of L-glutamine, 100 U/mL of penicillin, and 50 U/mL of streptomycin (Invitrogen, Paris, France). For U87 wt, U251, U138, and SK-N-SH cells, the medium consisted of EMEM (Lonza, Levallois Perret, France). U118 and Caco-2 lines were maintained in DMEM. The U87 wt-derived lines, U87 shCTRL, and U87 shTau2 cells were continuously maintained in complete EMEM medium supplemented with 0.4 µg/mL of puromycin. The shRNA sequences and the protocol of clone selection and Tau downregulation were previously described in [20]. For Tau expression rescue, the U87 shCTRL and U87 shTau cells were seeded two days prior to experiments at 4.10^5 cells per 60 mm dish in 6 mL of complete medium. Cells were transfected using LipofectAmine 2000 according to Invitrogen instructions and 8 µg EGFP-free plasmid constructs (for U87 shCTRL) and EGFP-hTau40 plasmid constructs (for U87 shTau) were used in total. One day prior to experiments, all cells were plated in a 96-well microtiter plate to prepare for viability assays. Cells were free from mycoplasma as determined by mycoalert tests (Lonza).
as §1

Data set [3] deals with lactate-dehydrogenase (LDH) of U87 shCTRL and U87 shTau cells. The data set is described as follows: LDH activity in the medium (necrosis). In kind it is cell-based. To be noted: both cell types, 24 h treatment. The method, then:
death. (A) The apoptotic protein casp ase 3 (Casp 3) was analy zed by western blot of U87 shCTRL and U87 shTau cells: for each s ample t he ratio between the amount of Casp3 and GAPDH was calculated as relative fold of the reference value (with or without the compound); n = 3 lysates, ns: non-si gnificant. […]
blot used for quantification. (B) The activity of necrotic LDH protein was analy zed by fluorescence emission in U87 shCTRL (upper panel) and U87 shTau (lower panel) cells. For each s ample, the ratio between LDH florescence was calculated as the percentage of activity against reference value (0,1% Triton); n = 3 lysates; Significant statistical differences were calculated using a non-parametric Mann-Whitney test with **P < 0.01; n.s: non-significant.
(1 picture or pasted object on this page, not shown here)

[4] abbreviates: 1.25 µM, 24 h, untreated 39 ± 5%.

Take `Nc1nc2ccc3oc(C(=O)O)cc(=O)c3c2s1` [Compound 5]: the IC50 in the data set with T98G glioblastoma cells, in the data set on U138 glioblastoma cells and in the data set with U87 shCTRL cells [2] was over 100000 nM in each case. In addition, the “ratio of microtubule network surface to total cell surface” value in the data set on U87 shCTRL cells [1] (setting [4]) is “no effect”; in the data set with U87 shCTRL cells [1] (5 µM, 8 h (maximal)) it was “no effect on microtubule networks”; in the data set on U87 shCTRL cells [1] (20 µM, 24 h, untreated 39 ± 5%) it was “no effect”. Also, the LDH activity result in data set [3] is “remained similar to untreated cells”.

In the case of `Nc1nc2ccc3oc(-c4cccc(Oc5ccccc5)c4)cc(=O)c3c2s1` [Compound 2, 2-amino-7-(3-phenoxyphenyl)-9H-chromeno [6,5-d]thiazol-9-one], the concentration for half-maximal inhibition (IC50) (usually the concentration at which inhibition is half-maximal) in the data set with T98G glioblastoma cells turned out to be 2800 ± 2400 nM; in the data set with U138 glioblastoma cells, 2300 ± 1000 nM; with U87 shCTRL cells [2], 1400 ± 500 nM. Also, the “ratio of microtubule network surface to total cell surface” value in the data set with U87 shCTRL cells [1] (setting [4]) came out at 42.2 ± 6.7%; in the data set with U87 shCTRL cells [1] (5 µM, 8 h (maximal)), 44.1 ± 3.8%; in the data set on U87 shCTRL cells [1] (20 µM, 24 h, untreated 39 ± 5%), 43.2 ± 9.3%. Besides, the “activity against U87 shCTRL cells compared to U87 shTau cells” value in the data set on U87 shCTRL cells [2] (ratio of IC50 values) was determined as 3 times. Besides, the LDH activity entry in data set [3] is given as “remained similar to untreated cells”.

These data come from paper PMC10606064, “2-Aminothiazole-Flavonoid Hybrid Derivatives Binding to Tau Protein and Responsible for Antitumor Activity in Glioblastoma” (International Journal of Molecular Sciences, 2023).
